Results reported in patent US12440582B2, “Biothiol-activatable probe and method of use” (BOARD OF REGENTS, THE UNIVERSITY OF TEXAS SYSTEM, priority 2019, dated 2025).
Where a name gives a salt, the structure may show the parent alone.

Assays:
[1] = system: serum GSH; assay: Serum GSH level following APAP administration; type: in vivo, mice; details: 2 h after APAP 300 mg/kg i.p.
Method: FIG. 54. Serum GSH level following APAP administration. […] Data reported are means and standard deviation overlapped with data points from individual mouse. Statistical significance is evaluated by two-sample equal variance t-test. P<0.05 is considered statistically significant. N=4 mice for the experiment.

[2] = system: liver GSH; assay: Liver GSH level measured ex vivo (Tietze enzymatic recycling assay); type: in vivo, BALB/c mice; details: for hepatic GSH level: 30 min p.i.
[3] = in vivo
From the text: FIGS. 39A-E. Utilization of hepatic glutathione-mediated biotransformation to enhance tumor targeting of a cisplatin prodrug. (FIG. 39A) Scheme illustrating the rationale of designing the ICG-Cis-Pt prodrug by combining temporal serum protein binding and hepatic glutathione-mediated biotransformation to slow down the rapid renal clearance of Cis-Pt prodrug and enhance its tumor targeting efficiency while avoiding predominant accumulation in MPS. […] (FIG. 39C) Tumor targeting efficiency of Cis-Pt pro drug and ICG-Cis-Pt prodrug at 48 hr p.i. (FIG. 39D) Renal clearance profiles of Cis-Pt prodrug and ICG-Cis-Pt prodrug. […] (FIG. 39E) Biodistribution of Pt in organs at 48 hr and 7 day following intravenously injection of ICG-Cis-Pt prodrug. The accumulation of ICG-Cis-Pt in MPS as well as in other major organs is low and continues to decrease over time. Statistical significance is evaluated by two-sample t-test (**p<0.01).

[4] = system: plasma GSH; assay: Plasma glutathione level after DEM administration; type: in vivo, BALB/c mice
Method: FIGS. 21A-B. Plasma glutathione level after DEM administration. (FIG. 21A) Plasma total glutathione (reduced GSH+2GSSG) and glutathione disulfide (GSSG) concentration at various time points after intraperitoneal injection of 1 mL/kg DEM in mice (n=3). (FIG. 21B) Plasma reduced glutathione concentration at different time was then calculated by subtracting GSSG from the total GSH concentration. The quantification of plasma total GSH and GSSG was carried out according to the established procedures (Rahman et al., 2006) via a modified Tietze enzymatic recycling assay.
Depletion of tissue GSH in vivo.

[5] = system: APAP-induced liver injury; assay: NAC treatment of APAP-induced liver injury (liver morphology, TUNEL); type: in vivo, mice
Method: FIGS. 44A-D. Monitoring hepatic GSH depletion in drug-induced liver injury allows early treatment and improves prognosis. (FIG. 44A) Scheme of the APAP metabolism and pathophysiology process of APAP overdose induced hepatotoxicity. Hepatic GSH depletion occurs much earlier than the death of hepatocytes and the release of serum biomarkers. (FIG. 44B) Serum ALT levels of mice (N=3) at multiple time points after receiving 300 mg/kg body weight APAP. […] (FIG. 44C) Serum ALT levels of mice (N=3) at 12 h post injection of overdose APAP with NAC treatment at different time points after APAP administration. (FIG. 44D) Representative color pictures of the liver (12 h after APAP administration) as well as fluorescent microscope images of cell death in liver tissues (detected using TUNEL assay) from APAP overdosed mice without NAC treatment or receiving NAC treatment at 30 min (early treatment) and 5.5 h (delayed treatment) after APAP administration. Cell nuclei were counter-stained with DAPI. Scale bar, 20 μm. Statistical significance is evaluated by two-sample equal variance t-test (P<0.05; statistically significant). Data points are presented as means and standard deviation.
APAP-induced liver injury animal model. Healthy male BALB/c mice were pre-fasted for 5 h and then intraperitoneally injected with APAP saline solution (˜28 mg/mL) at an overdose of 300 mg/kg body weight. […]

[6] = Blood pharmacokinetics after intravenous injection; details: i.v.
Method: Statistical significance is evaluated using a two-sample unequal variances (Welch's) t-test (**P<0.01, ***P<0.005). Data points are reported as mean±s.d.
Both curves were fitted with two-phase exponential decay functions to obtain the weighted average half-lives.
Pharmacokinetics and biodistribution study of 1CG4-GS-Au25. […] At certain time point post-injection, blood sample (˜30 μL) was retro-orbitally collected and weighed, followed by the addition of 500 μL lysis buffer containing 20 mM cysteine (pH˜8) to liberate ICG from Au25 nanocluster and recover the quenched fluorescence of ICG. Then fluorescence of cysteine treated blood sample was measured by the in vivo imaging system to quantify ICG in blood. Afterwards, the blood sample was completely dissolved in freshly made aqua regia and the Au amount in blood was analyzed by ICP-MS.

[7] = Tumor targeting efficiency in MCF-7 xenograft mice; type: in vivo; details: nude, mouse, tumor (MCF-7 xenograft), intravenous, 24 hr p.i., read-out: tumor targeting efficiency (ICG)
From the text: Blue arrows indicate the tumors.

[8] = system: MCF-7 tumor; assay: in vivo; details: MCF-7 tumor bearing nude mice
From the text: (§1) FIGS. 30A-B. Decay of background tissue fluorescence signal over time. (FIG. 30A) Representative in vivo imaging of 1CG4-GS-Au25 injected mouse (72 hr p.i.) illustrating the region of interest (ROI) chosen for tumor (red dashed circle) and background tissue (yellow dashed circle) ICG fluorescence quantification. Red arrows indicate tumor location.

[9] = in vivo; details: nude, mouse, in vivo
From the text: as §1

## CC(=O)Nc1ccc(O)cc1 [APAP, acetaminophen]
[1]
  serum GSH level: didn't change significantly
[2]; APAP 300 mg/kg
  hepatic GSH level of overdosed mice, of that of the control mice: ~36%
[2]; APAP normal dose 60 mg/kg
  hepatic GSH level: 6.6±0.8 μmole/g tissue
[2]; APAP overdose 300 mg/kg
  hepatic GSH level: 2.1±1.2 μmole/g tissue

## CN(C)CCCN1c2ccccc2Sc2ccc(Cl)cc21 [CPZ, chlorpromazine]
[2]; 0.5 h after CPZ 100 mg/kg i.p.
  liver GSH level: decrease in hepatic GSH level

## [NH2][Pt]([NH2])([OH])([Cl])([Cl])[O]C(=O)CCC(=O)O [Cis-Pt prodrug, cis,cis,trans-[Pt(NH3)2Cl2(OH)(O2CCH2CH2COOH)]]
[3]
  AUC (blood retention): 7.4±0.2 % ID/g×h

## CCOC(=O)/C=C\C(=O)OCC [DEM, diethyl maleate]
[4]; single injection of DEM
  duration of low plasma GSH level before recovery: 2 to 3 h
[4]; single intraperitoneal injection of DEM, 1 mL/kg
  plasma GSH level, of the initial value: ~12%
[2]; 0.3 mg/kg body weight DEM, intraperitoneal
  liver GSH level: ~3.1 μmole/g liver tissue
[2]; 0.6 mg/kg body weight DEM, intraperitoneal
  liver GSH level: ~0.6 μmole/g liver tissue

## CC(=O)N[C@@H](CS)C(=O)O [NAC, N-acetylcysteine]
[5]; NAC at 30 min post-injection of APAP (early treatment)
  effect on liver damage (morphology, TUNEL): almost completely reverse the liver damage
[5]; NAC at 5.5 h after APAP overdose (delayed treatment)
  effect on liver damage (morphology, TUNEL): severe hemorrhage on the liver tissue as well as the pervasive death of liver cells

## CC1(C)C(/C=C/C=C/C=C/C=C2\N(CCCCS(=O)(=O)O)c3ccc4ccccc4c3C2(C)C)=[N+](CCCCS(=O)(=O)[O-])c2ccc3ccccc3c21 [free ICG, indocyanine green]
[6]
  ICG blood retention (AUC): ~1.9 h×% ID/g
[7]
  tissue uptake at 24 h: ~0.15 %ID/g
[8]
  maximum tumor contrast index (CI): 1.8
[9]; half-life of ICG retention (fluorescence decay) in tumor
  half-life: ~3.8 h
[9]; half-life of ICG signal in background tissues
  half-life: 3.5 h
